{"source": "ChEMBL document CHEMBL5584334", "about": "“Discovery of a Covalent Inhibitor of Pro-Caspase-1 Zymogen Blocking NLRP3 Inflammasome Activation and Pyroptosis” (J Med Chem, 2024)", "key": {"[1]": {"target": "NACHT, LRR and PYD domains-containing protein 3 (Mus musculus) (UniProt Q8R4B8)", "sequence (Q8R4B8 whole entry, the tested form may be a part)": "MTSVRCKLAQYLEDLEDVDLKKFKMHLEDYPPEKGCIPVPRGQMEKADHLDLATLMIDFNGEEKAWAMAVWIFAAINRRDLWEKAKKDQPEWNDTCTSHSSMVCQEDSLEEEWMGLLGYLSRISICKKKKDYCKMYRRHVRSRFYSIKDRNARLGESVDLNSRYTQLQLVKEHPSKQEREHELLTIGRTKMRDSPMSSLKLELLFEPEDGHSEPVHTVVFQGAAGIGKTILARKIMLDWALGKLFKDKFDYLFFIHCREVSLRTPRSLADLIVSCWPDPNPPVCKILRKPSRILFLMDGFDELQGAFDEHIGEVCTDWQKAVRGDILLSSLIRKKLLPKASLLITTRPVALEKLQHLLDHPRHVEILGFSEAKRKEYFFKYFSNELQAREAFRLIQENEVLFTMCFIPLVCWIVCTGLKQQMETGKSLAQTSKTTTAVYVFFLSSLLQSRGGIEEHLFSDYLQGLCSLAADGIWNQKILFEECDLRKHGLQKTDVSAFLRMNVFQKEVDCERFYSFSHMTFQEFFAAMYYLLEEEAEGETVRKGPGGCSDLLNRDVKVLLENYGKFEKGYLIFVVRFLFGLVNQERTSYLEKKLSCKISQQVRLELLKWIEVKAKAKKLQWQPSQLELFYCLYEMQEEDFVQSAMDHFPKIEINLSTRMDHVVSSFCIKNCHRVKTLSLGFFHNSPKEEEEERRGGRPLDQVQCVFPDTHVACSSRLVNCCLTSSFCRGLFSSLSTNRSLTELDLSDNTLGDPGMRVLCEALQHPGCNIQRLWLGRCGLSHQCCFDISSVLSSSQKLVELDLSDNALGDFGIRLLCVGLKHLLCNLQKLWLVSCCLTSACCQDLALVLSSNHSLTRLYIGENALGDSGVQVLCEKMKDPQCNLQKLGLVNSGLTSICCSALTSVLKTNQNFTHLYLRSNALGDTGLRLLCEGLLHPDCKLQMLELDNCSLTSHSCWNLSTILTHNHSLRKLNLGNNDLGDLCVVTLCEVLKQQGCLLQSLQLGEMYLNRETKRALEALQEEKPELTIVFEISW", "assay": "Inhibition of NLRP3 inflammasome activation activation in LPS/nigericin stimulated mouse J774.A1 cells assessed as reduction in IL-1beta production pretreated with LPS for 3 hrs prior to compound addition for 30 mins followed by nigericin addition and measured after 45 mins by ELISA", "type": "cell-based", "conditions": "dose 0.001-2000 nM, time 75.0 min"}, "[2]": {"target": "NACHT, LRR and PYD domains-containing protein 3 (Mus musculus) (UniProt Q8R4B8)", "assay": "Inhibition of NLRP3 inflammasome activation in mouse BMDMs assessed as reduction in IL-1beta production at 0.5 to 2 uM pretreated with pam3CSK4 for 3 hrs followed by compound addition for 30 mins prior to cytosolic LPS stimulation for 16 hrs by ELISA", "type": "cell-based", "conditions": "BMDM, dose 0.5-2 µM, time 16.5 hrs"}, "THP-1 [3]": {"system": "THP-1", "assay": "Effect on pro-1L-1beta protein expression in LPS/nigericin stimulated human THP-1 cells supernatant at 0.5 to 2 uM by Western blotting analysis", "type": "functional, cell-based", "conditions": "dose 0.5-2 µM"}, "THP-1 [4]": {"system": "THP-1", "assay": "Inhibition of p20 fragment of caspase 1 protein expression in LPS/nigericin stimulated human THP-1 cells supernatant at 0.5 to 2 uM by Western blotting analysis", "type": "functional, cell-based", "conditions": "dose 0.5-2 µM"}, "THP-1 [5]": {"system": "THP-1", "assay": "Effect on cleaved caspase-5 expression in human THP-1 cells at 2 uM pretreated with pam3CSK4 for 3 hrs followed by compound addition for 30 mins prior to cytosolic LPS stimulation for 16 hrs by ELISA", "type": "functional, cell-based", "conditions": "time 16.5 hrs"}, "BMDM": {"system": "BMDM", "assay": "Effect on pro caspase-11 expression in mouse BMDM cells at 0.5 to 2 uM pretreated with pam3CSK4 for 3 hrs followed by compound addition for 30 mins prior to cytosolic LPS stimulation for 16 hrs by ELISA", "type": "functional, cell-based", "conditions": "dose 0.5-2 µM, time 16.5 hrs"}, "[6]": {"target": "NACHT, LRR and PYD domains-containing protein 3 (Mus musculus) (UniProt Q8R4B8)", "assay": "Inhibition of NLRP3 inflammasome activation in mouse J774.A1 cells assessed as reduction in TNF-alpha release at 0.5 to 2 uM preincubated for 30 mins followed by LPS stimulation for 6 hrs", "type": "cell-based", "conditions": "dose 0.5-2 µM, time 6.5 hrs"}, "J774.A1 [7]": {"system": "J774.A1", "assay": "Downregulation of inhibitor kappa B-alpha phosphorylation in mouse J774.A1 cells at 0.5 to 2 uM preincubated for 30 mins followed by LPS addition and measured after 2 hrs by Western blotting analysis", "type": "functional, cell-based", "conditions": "dose 0.5-2 µM, time 2.5 hrs"}, "J774.A1 [8]": {"system": "J774.A1", "assay": "Inhibition of ASC to pro-caspase-1 interaction in LPS/nigericin stimulated mouse J774.A1 cells", "type": "cell-based"}, "J774.A1 [9]": {"system": "J774.A1", "assay": "Inhibition of ROS production in LPS/nigericin stimulated mouse J774.A1 cells", "type": "functional, cell-based"}, "J774.A1 [10]": {"system": "J774.A1", "assay": "Effect on ASC oligomerization in mouse J774.A1 cells at 2 uM pretreated with LPS for 3 hrs prior to compound addition followed by nigericin stimulation", "type": "functional, cell-based"}, "Caspase-1 (Mus musculus)": {"target": "T1, Caspase-1 (Mus musculus) (UniProt P29452)", "T1 sequence (whole entry)": "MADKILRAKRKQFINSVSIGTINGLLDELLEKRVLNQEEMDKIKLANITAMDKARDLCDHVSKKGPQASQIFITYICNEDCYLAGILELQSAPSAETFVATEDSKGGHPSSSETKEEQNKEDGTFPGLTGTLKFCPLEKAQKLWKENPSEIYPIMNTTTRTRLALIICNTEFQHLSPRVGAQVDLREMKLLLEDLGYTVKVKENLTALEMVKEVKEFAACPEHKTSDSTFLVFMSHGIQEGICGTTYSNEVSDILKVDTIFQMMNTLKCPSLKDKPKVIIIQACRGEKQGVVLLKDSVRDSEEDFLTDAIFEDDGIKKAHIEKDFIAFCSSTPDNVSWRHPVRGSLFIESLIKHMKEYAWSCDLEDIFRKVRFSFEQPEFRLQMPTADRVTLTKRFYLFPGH", "assay": "Binding affinity to caspase-1 in LPS-induced mouse J774.A1 cells assessed as reduction in IL-1beta level at 0.5 uM preincubated with compound followed by nigericin addition", "type": "cell-based", "conditions": "time 3-24 hrs, TDE = time-dependent effect"}, "[11]": {"system": "Caspase-1 (Homo sapiens), P29466 [C397A]", "sequence (P29466 whole entry C397A)": "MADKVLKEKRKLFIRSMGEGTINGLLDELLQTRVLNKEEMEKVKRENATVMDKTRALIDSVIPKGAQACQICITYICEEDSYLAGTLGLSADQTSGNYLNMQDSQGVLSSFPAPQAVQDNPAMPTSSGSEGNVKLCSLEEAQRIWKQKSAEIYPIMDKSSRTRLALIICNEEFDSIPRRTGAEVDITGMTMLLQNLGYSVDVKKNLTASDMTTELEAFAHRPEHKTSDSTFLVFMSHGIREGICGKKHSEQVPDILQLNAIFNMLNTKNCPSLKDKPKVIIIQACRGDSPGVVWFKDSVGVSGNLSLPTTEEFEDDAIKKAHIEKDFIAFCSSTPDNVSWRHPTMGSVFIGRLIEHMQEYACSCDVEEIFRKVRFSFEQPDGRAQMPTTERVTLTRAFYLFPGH", "assay": "Binding affinity to recombinant caspase-1 C397A mutant (unknown origin) at 2 uM by SDS-PAGE analysis"}, "[12]": {"system": "Caspase-1 (Homo sapiens), P29466 [C397A]", "assay": "Binding affinity to Flag-tagged caspase-1 C397A mutant (unknown origin) expressed in HEK293T cells by pull-down assay", "type": "cell-based"}, "[13]": {"target": "NACHT, LRR and PYD domains-containing protein 3 (Mus musculus) (UniProt Q8R4B8)", "assay": "Inhibition of NLRP3 inflammasome activation in LPS primed Casp1 knockout mouse BMDM cells transfected with caspase-1 C285A mutant assessed as reduction in IL-1beta release at 2 uM preincubated for 30 mins followed by nigericin stimulation", "type": "cell-based"}, "[14]": {"target": "NACHT, LRR and PYD domains-containing protein 3 (Mus musculus) (UniProt Q8R4B8)", "assay": "Inhibition of NLRP3 inflammasome activation in LPS primed Casp1 knockout mouse BMDM cells transfected with caspase-1 C284A mutant assessed as reduction in IL-1beta release at 2 uM preincubated for 30 mins followed by nigericin stimulation", "type": "cell-based"}, "[15]": {"target": "NACHT, LRR and PYD domains-containing protein 3 (Mus musculus) (UniProt Q8R4B8)", "assay": "Inhibition of NLRP3 inflammasome activation in LPS primed Casp1 knockout mouse BMDM cells transfected with caspase-1 C395A mutant assessed as reduction in IL-1beta release at 2 uM preincubated for 30 mins followed by nigericin stimulation", "type": "cell-based"}, "J774.A1 [16]": {"system": "J774.A1", "assay": "Inhibition of pyroptosis in mouse J774.A1 cells assessed as reduction in caspase-1 to GSDMD interaction at 1 uM pretreated with LPS for 3 hrs followed by compound addition in presence of nigericin by immunoprecipitation analysis", "type": "functional, cell-based"}, "HEK293T [17]": {"system": "HEK293T", "assay": "Inhibition of recombinant wild type caspae-1 (unknown origin) to GSDMD (unknown origin) interaction expressed in HEK293T cells", "type": "cell-based", "conditions": "Homo sapiens"}, "HEK293T [18]": {"system": "HEK293T", "assay": "Inhibition of recombinant caspae-1 C169A mutant (unknown origin) to GSDMD (unknown origin) interaction expressed in HEK293T cells", "type": "cell-based", "conditions": "Homo sapiens"}, "[19]": {"assay": "Tmax in rat at 25 mg/kg, po", "type": "ADME, organism-based", "conditions": "in vivo"}, "Mus musculus [20]": {"system": "Mus musculus", "assay": "Anti-inflammatory activity in MSU/C18:0 free fatty acid induced Kunming mouse model of gouty arthritis assessed as reduction NLRP3 expression at 5 to 20 mg/kg, ip preadministered with compound for 30 mins followed by MSU/C18:0 free fatty acid injection and measured after 24 hrs by Western blotting analysis", "type": "functional, organism-based", "conditions": "dose 5-20 mg/kg, time 24.5 hrs"}, "Mus musculus [21]": {"system": "Mus musculus", "assay": "Anti-inflammatory activity in MSU/C18:0 free fatty acid induced ip dosed Casp1 knockout Kunming mouse model of gouty arthritis assessed as reduction in foot swelling preadministered with compound for 30 mins followed by MSU/C18:0 free fatty acid injection and measured after 24 hrs", "type": "functional, organism-based", "conditions": "time 24.5 hrs"}, "Mus musculus [22]": {"system": "Mus musculus", "assay": "Anti-inflammatory activity in MSU/C18:0 free fatty acid induced ip dosed Casp1 knockout Kunming mouse model of gouty arthritis assessed as reduction in IL-beta production preadministered with compound for 30 mins followed by MSU/C18:0 free fatty acid injection and measured after 24 hrs by ELISA", "type": "functional, organism-based", "conditions": "time 24.5 hrs"}, "Mus musculus [23]": {"organism": "Mus musculus", "assay": "Inhibition of pain perception in MSU/C18:0 free fatty acid induced wild type mouse measured upto 24 hrs", "type": "functional, organism-based"}}, "note": "Activity calls are given as the source filed them. No cut-off for these calls is given here.", "data": [{"smiles": "COc1ccc2c(c1)[C@]1(C=C[C@H](N=C=S)C[C@H]1C(=O)OC(C)(C)C)C(=O)N2C(=O)OCc1ccccc1", "values": [{"measurement": "inhibition", "setting": "[1]", "result": "Dose-Dependent Effect"}, {"measurement": "inhibition", "setting": "[2]", "result": "Active"}, {"measurement": "Activity", "setting": "THP-1 [3]", "result": "inactive"}, {"measurement": "inhibition", "setting": "THP-1 [4]", "result": "Active"}, {"measurement": "Activity", "setting": "THP-1 [5]", "result": "inactive"}, {"measurement": "Activity", "setting": "BMDM", "result": "inactive"}, {"measurement": "inhibition", "setting": "[6]", "result": "Active"}, {"measurement": "Activity", "setting": "J774.A1 [7]", "result": "Active"}, {"measurement": "inhibition", "setting": "J774.A1 [8]", "result": "Active"}, {"measurement": "inhibition", "setting": "J774.A1 [9]", "result": "inactive"}, {"measurement": "inhibition", "setting": "J774.A1 [10]", "result": "Active"}, {"measurement": "Activity", "setting": "Caspase-1 (Mus musculus)", "result": "Tde"}, {"measurement": "Activity", "setting": "[11]", "result": "inactive"}, {"measurement": "Activity", "setting": "[12]", "result": "inactive"}, {"measurement": "inhibition", "setting": "[13]", "result": "inactive"}, {"measurement": "inhibition", "setting": "[14]", "result": "inactive"}, {"measurement": "inhibition", "setting": "[15]", "result": "inactive"}, {"measurement": "inhibition", "setting": "J774.A1 [16]", "result": "Active"}, {"measurement": "inhibition", "setting": "HEK293T [17]", "result": "Active"}, {"measurement": "inhibition", "setting": "HEK293T [18]", "result": "Active"}, {"measurement": "Tmax", "setting": "[19]", "result": 1.5, "unit": "h"}, {"measurement": "Activity", "setting": "Mus musculus [20]", "result": "Active"}, {"measurement": "Activity", "setting": "Mus musculus [21]", "result": "inactive"}, {"measurement": "Activity", "setting": "Mus musculus [22]", "result": "inactive"}, {"measurement": "inhibition", "setting": "Mus musculus [23]", "result": "Active"}]}]}
